Read-outs that look alike come from different tables or passages of the source.
Legend:
[1] = cited from earlier work
[2] = Cumulative release of albumin from a controlled-release device; assay type: physicochemical
Description: Bovine serum albumin (MW 68,000) was dissolved in phosphate buffered saline and loaded into a device designed to deliver a loading dose. After an initial burst release, the rate becomes constant. Data are plotted as the cumulated delivery of albumin over time, measured as described for FIG. 5. Approximately 10 mg was delivered in 24 hours.

Row | Compound | absorption, share of the total ([1]; ileum) [%] | absorption, share of the total ([1]; jejunum) [%] | absorption, share of the total ([1]; stomach) [%] | release kinetics of albumin ([2]; after an initial burst release) | cumulated delivery of albumin ([2]; in 24 hours, device designed to deliver a loading dose)
1 | [Ca+2] [calcium] | 60 | 20 | < 2 | – | –
2 | Bovine serum albumin: Bovine serum albumin (MW 68,000) in phosphate buffered saline, loaded into a device designed to deliver a loading dose | – | – | – | zero order rate release of albumin over a duration of 24 hours | Approximately 10 mg
